Reference: the NIST ThermoML archive (doi:10.1016/j.jct.2019.03.024)
± gives the expanded uncertainty stated by the source.

Columns and labels:
[1] = 298.15 K, 86.5 kPa, Liquid
[2] = refractive index (Na D-line) (dimensionless); conditions: 298.15 K; 86.5 kPa; Liquid; Standard Abbe refractometry

speed of sound ([1]; Frequency=3 MHz, Single path-length method): 1561.8 ± 2.2 m/s | mass density ([1]; Vibrating tube method): 1172.98 ± 2.3 kg/m3 | refractive index [2]: 1.5217 ± 0.02
SMILES: CCCCCCCCn1cc[n+](C)c1.[Br-] [1-methyl-3-octylimidazolium bromide]
